One test concerns the target HLA-DRB1*0401 (Homo sapiens (Human), UniProt P01903+P01911, A100K/A169T/DEL228-266/F76Y/I96L/K127E/L162R/M171V/N62H/P40V/Q125Y/R42H/S133A/S149N/S66Y/V115G/V209L/W38E). Description: HLA-DR4 HTRF assay. It counts as binding. The following applies: inhibition of loading of Alexa Fluor 647-labeled Cit-CII peptide onto HLA-DR4 (CLIP cleaved). The text has this: (§1) The screening was made through two sets of HLA-DR/peptide-dependent assays: a peptide-dependent Homogeneous Time Resolved Fluorescence (HTRF) binding assay followed by an HLA-DR dependent, peptide-specific T cell functional assay (HLA-DR4-restricted peptide-specific T cell-based assay hybridoma assay). The HTRF binding assay was designed to measure the ability of the small molecule to inhibit the loading of a fluorescently labeled high-affinity peptide onto HLA-DR peptide binding groove. The peptide-specific T cell functional assay assesses T cell activation resulting from proper peptide presentation onto HLA-DR expressed on the surface of the antigen-presenting cells to the T cell and is used to screen compounds able to inhibit such HLA-DR/peptide-dependent T cell activation.
The HLA-DR4 HTRF assay is based on HTRF technology and designed to measure ability of compounds to prevent loading of high-affinity Alexa Fluor 647-labeled Citrullinated Collagen 111236-1249 peptide (named Cit-CII/AF647, aa1236-1249, LQYM-Cit-ADQAAGGLR; Alexa Fluor 647 dye commercially available from Invitrogen) onto HLA-DRB1*0401. The HTRF assay technology is based on the energy transfer between two fluorophores, a donor and an acceptor, when in close proximity. The HLA-DR4 protein construct was uniquely designed for this assay and has (i) the α and […] subunits fused to human Fc chains and (ii) the invariant chain-associated peptide (CLIP peptide, aa85-101), the universal moderate/low-affinity HLA-DR binder, attached to the beta chain through a HRV3C protease-cleavable linker.
Because of the low stability of peptide free HLA-DR4 heterodimer, the construct was purified and delivered with CLIP peptide attached to the N-terminal of the β chain. The HLA-DR4 heterodimer was pre-treated with 3 μL HRV3C protease (Novagen E71493-3) (˜2 U/μL) per mg of the cleavable protein to cleave CLIP peptide and incubated overnight (>16 hrs) at 4° C. This method yielded at least 80% cleavage and allowed the CLIP peptide to be potentially exchanged with the fluorescently labeled high affinity cit-CII1236-1249 peptide. A batch of […] protein with CLIP cleaved was prepared for multiple experiments and was stable for several months when stored at 4° C.
In this assay, anti-human Fc antibody labeled with Tb-Cryptate probe was used as the donor (commercially available from Cisbio—PAb Anti-human IgG-Tb Cryptate, Cat #61HFCTAB) and high affinity peptide Citrullinated CII (cit-CII) labeled with Alexa 647 fluorophore was utilized as the acceptor. Inhibitors of the exchange of the pre-cleaved CLIP peptide for the high affinity cit-CII1236-1249 peptide onto HLA-DRB1*04:01 caused a decrease in HTRF signal as measured by the ratio of the 665 nm/620 nm emitted signal. Screening compounds were robotically pre-dispensed (150 nL, Hummingbird, DigiLab/CyBio AG) onto black, round bottom, nontreated, 1536-well assay plates (Corning #3939), were incubated with 3 nM HLA-DR4 (with CLIP cleaved) plus 1 nM Human IgG-Tb (anti-Fc-Tb) Antibody for 45 min prior to addition of 40 nM Cit-CII peptide labeled with Alexa-647. The negative control was DMSO plus 1 nM Human IgG-Tb (anti-Fc-Tb) Antibody, incubated for 45 minutes before addition of 40 nM Cit-CII peptide labeled with Alexa-647. The positive control was DMSO plus 3 nM HLA-DR4 (with CLIP cleaved) plus 1 nM Human IgG-Tb (anti-Fc-Tb) Antibody with 40 nM Cit-CII peptide labeled with Alexa-647 added after a 45-minute incubation. Plates were centrifuged at 1000 rpm for 1 minute and then incubated at 37° C., at 90% relative humidity for 90 minutes. After incubation, plates were read on a spectrophotometer, the Pherastar FS (BMG Labtech), in HTRF mode. The HTRF ratio as well as percent inhibition was calculated. Curve fitting and IC50 calculation for dose response data was performed by Microsoft Excel, 3DX (Janssen proprietary software) or Graphpad Prism (Graphpad Software, San Diego, CA). […]
In general terms: In TR-FRET formats the signal depends on donor and acceptor labels being close together.

The subject of test [1] is HLA-DR4 restricted mouse T cell hybridoma line (DR4.CII.36.8) with HLA-DRB1*04:01-expressing Boleth cells. In words: HLA-DR4-restricted peptide-specific T cell-based assay (hybridoma assay). Conditions: Mus musculus, T-cell, 6 h, inhibition of IL-2 production, CII259-273 peptide presented by Boleth cells.
Excerpt: as §1
HLA-DR4-Restricted Peptide-Specific T Cell-Based Assay (Hybridoma Assay)
The hybridoma assay was used to measure compound inhibition of TL-2 production from an HLA-DR4 restricted mouse T cell hybridoma line (DR4.CII.36.8) that was antigen-specific for collagen II259-273 (CII259-273) peptide when presented with an HLA-DR4 expressing Antigen Presenting Cell (APC) cell line (i.e., Boleth).
To the HLA-DRB1*04:01-expressing B cell line (Boleth cell line from International Histocompatibility Working Group (IHWG), ref #IHW09031) was presented the collagen II 259-273 peptide (CII259-273, GIAGFKGEQGPKGEP) to mouse T cell hybridoma (DR4.CII.36.8 T cell hybridoma; clone 36.8, expressing a CII259-273-specific, HLA-DRB1*04:01-restricted T cell receptor). Upon proper CII259-273 peptide presentation, the T cell hybridoma was activated and thus produced IL-2 cytokine, whose level in the cell culture supernatant was detected using mouse IL-2 AlphaLISA kit (Perkin Elmer, Cat: AL511F).
This assay was performed in a 384-well plate (polypropylene V-bottom Greiner bio-one, ref #784075) by: (i) pre-incubation of 20 μL of 1.25 million/mL Boleth cells (25,000 cells) resuspended in DMEM/1% fetal calf serum (FCS; Gibco, ref #16140-071) with 20 μL of 2.5× final concentration of compound of interest in DMEM/1% serum/0.75% DMSO at 37° C. for 1 hr in the incubator, then (ii) 10 μL of 5 million/mL (50,000 cells) DR4.CII.36.8 T cell hybridoma cells resuspended in DMEM/1% FCS was added and incubated for 6 h at 37° C. in the incubator. Supernatant was then collected and mouse IL-2 detected using AlphaLISA kit (ref #AL511F). Compounds were tested in duplicate, with 8-point titration. Mean±SD of AlphaLISA units at each compound concentration was used for compound IC50 calculation. The negative control for this experiment was run without peptide stimulation and used a DMSO vehicle wherein no compound of interest was added. The positive control was run with peptide stimulation and used a DMSO vehicle wherein no compound of interest was added. Both the negative and positive controls were run in 8 replicates each. Curve fitting and IC50 calculation for dose response data was performed by GraphPad software 6 or higher (GraphPad Software, San Diego, CA). Dose response data was plotted versus the log of compound concentration and IC50 was determined using 4-parameter logistic (4-PL) curve fitting.

pIC50: −log10 of the molar value.

Broadly, the pIC50 is the negative decadic logarithm of the IC50, by convention in mol/L. A high value points to a low IC50.

For `NC(=O)c1ccc([C@@H](Oc2ccc3c(c2)OCCC3=O)c2ccncc2F)cc1` (single isomer, unassigned) [Example 20a, (*R)-4-((3-fluoropyridin-4-yl)((4-oxochroman-7-yl)oxy)methyl)benzamide], the values for the pIC50 (against HLA-DRB1*0401; in test [1]) were 5.92 and 5.16, respectively.

For `NC(=O)c1ccc([C@H](Oc2ccc3c(c2)OCCC3=O)c2ccncc2F)cc1` (single isomer, unassigned) [Example 20b, (*S)-4-((3-fluoropyridin-4-yl)((4-oxochroman-7-yl)oxy)methyl)benzamide], the figures for the pIC50 (at HLA-DRB1*0401; in test [1]) were 6.04 and 5.21, respectively.

For the compound `Cc1cnccc1[C@H](Oc1ccc2c(c1)OCCC2=O)c1ccc(C(N)=O)cc1` (single isomer, unassigned) [Example 21a, (*R)-4-((3-Methylpyridin-4-yl)((4-oxochroman-7-yl)oxy)methyl)benzamide], the pIC50 against HLA-DRB1*0401 was 6.00; in test [1], 5.27.

For `Cc1cnccc1[C@@H](Oc1ccc2c(c1)OCCC2=O)c1ccc(C(N)=O)cc1` (single isomer, unassigned) [Example 21b, (*S)-4-((3-Methylpyridin-4-yl)((4-oxochroman-7-yl)oxy)methyl)benzamide], the pIC50 was 6.19 on HLA-DRB1*0401 and 5.27 in test [1].

On to `COc1cnccc1[C@H](Oc1ccc2c(c1)OCCC2=O)c1ccc(C(N)=O)cc1` (single isomer, unassigned) [Example 23a, (*R)-4-((3-methoxypyridin-4-yl)((4-oxochroman-7-yl)oxy)methyl)benzamide], for which the pIC50 at HLA-DRB1*0401 is 6.35; in test [1] it was 5.00.

Turning to `NC(=O)c1ccc([C@@H](Oc2ccc3c(c2)OCCC3=O)c2ccncc2-c2ccccc2)cc1` (single isomer, unassigned) [Example 25a, (*R)-4-(((4-oxochroman-7-yl)oxy)(3-phenylpyridin-4-yl)methyl)benzamide], the pIC50 on HLA-DRB1*0401 is 6.32; in test [1] it was 5.19.

As to `NC(=O)c1ccc([C@@H](Oc2ccc3c(c2)OCCC3=O)c2ccncc2N)cc1` (single isomer, unassigned) [Example 27a, (*R)-4-((3-aminopyridin-4-yl)((4-oxochroman-7-yl)oxy)methyl)benzamide], the pIC50 at HLA-DRB1*0401 was 5.14; in test [1], 4.89.

On to `NC(=O)c1ccc([C@H](Oc2ccc3c(c2)OCCC3=O)c2ccncc2N)cc1` (single isomer, unassigned) [Example 27b, (*S)-4-((3-aminopyridin-4-yl)((4-oxochroman-7-yl)oxy)methyl)benzamide], for which the pIC50 against HLA-DRB1*0401 was 5.19; in test [1], less than 4.82.

In the case of `NC(=O)c1ccc([C@@H](Oc2ccc3c(c2)OCCC3=O)c2ccnc(N)c2)cc1` (single isomer, unassigned) [Example 28a, (*R)-4-((2-aminopyridin-4-yl)((4-oxochroman-7-yl)oxy)methyl)benzamide], the negative-log IC50 (pIC50) was 5.74 on HLA-DRB1*0401 and 5.16 in test [1].

As to `NC(=O)c1ccc([C@@H](Oc2ccc3c(c2)OCCC3=O)c2ccc(Cl)cc2)cc1` (single isomer, unassigned) [Example 30a, (*R)-4-((4-Chlorophenyl)((4-oxochroman-7-yl)oxy)methyl)benzamide], the values for the pIC50 (against HLA-DRB1*0401; in test [1]) were 6.03 and 5.23, respectively.

Take `NC(=O)c1ccc([C@H](Oc2ccc3c(c2)OCCC3=O)c2ccc(Cl)cc2)cc1` (single isomer, unassigned) [Example 30b, (*S)-4-((4-Chlorophenyl)((4-oxochroman-7-yl)oxy)methyl)benzamide]: the results for the pIC50 (on HLA-DRB1*0401; in test [1]) were 5.92 and 5.19, respectively.

For the compound `NC(=O)c1ccc([C@@H](Oc2ccc3c(c2)OCCC3=O)c2ccccn2)cc1` (single isomer, unassigned) [Example 32a, (*R)-4-(((4-oxochroman-7-yl)oxy)(pyridin-2-yl)methyl)benzamide], the figures for the pIC50 (against HLA-DRB1*0401; in test [1]) were 5.44 and 5.09, respectively.

Turning to `NC(=O)c1ccc([C@H](Oc2ccc3c(c2)OCCC3=O)c2ccccn2)cc1` (single isomer, unassigned) [Example 32b, (*S)-4-(((4-oxochroman-7-yl)oxy)(pyridin-2-yl)methyl)benzamide], the negative logarithm of the IC50 (pIC50) against HLA-DRB1*0401 is 5.72; in test [1], less than 4.82.

With `NC(=O)c1ccc([C@@H](Oc2ccc3c(c2)OCCC3=O)c2ccncn2)cc1` (single isomer, unassigned) [Example 33a, (*R)-4-(((4-Oxochroman-7-yl)oxy)(pyrimidin-4-yl)methyl)benzamide], the pIC50 at HLA-DRB1*0401 was 6.24; in test [1] it was 5.06.

For the compound `NC(=O)c1ccc([C@H](Oc2ccc3c(c2)OCCC3=O)c2ccncn2)cc1` (single isomer, unassigned) [Example 33b, (*S)-4-(((4-Oxochroman-7-yl)oxy)(pyrimidin-4-yl)methyl)benzamide], the pIC50 is 6.23 against HLA-DRB1*0401 and less than 4.82 in test [1].

Consider `Cc1cc([C@@H](Oc2ccc3c(c2)OCCC3=O)c2ccncc2)ccc1C(N)=O` (single isomer, unassigned) [Example 35a, (*R)-2-methyl-4-(((4-oxochroman-7-yl)oxy)(pyridin-4-yl)methyl)benzamide], for which the figures for the pIC50 (against HLA-DRB1*0401; in test [1]) were 6.02 and less than 4.82, respectively.

For the origin of these results see patent publication US12516038B2, “Inhibitors of antigen presentation by HLA-DR” (Janssen Pharmaceutica NV, priority 2020, dated 2026).
